Ends that are not written are not given here.
Experiments:
S. aureus ATCC 25923 = experiment: MIC, broth microdilution (CLSI); assay type: cell-based; conditions: S. aureus ATCC 25923, Gram-positive, 96-well
Procedure: (§1) S. aureus AB94004, S. aureus ATCC 25923, E. coli AB94012, E. coli ATCC 25922, Pseudomonas aeruginosa AB93066, Bacillus thuringiensis AB92037, Bacillus subtilis AB91021, and Micrococcus luteus AB93113 were purchased from the China Center of Type Culture Collection (CCTCC).
(§2) The MIC was determined via a microdilution assay in 96-well microtiter plates according to the broth microdilution guideline of Clinical and Laboratory Standards Institute (CLSI).

E. coli ATCC 25922 = experiment: MIC, broth microdilution (CLSI); assay type: cell-based; conditions: E. coli ATCC 25922, Gram-negative, 96-well
Procedure: as §1, §2

P. aeruginosa AB93066 = experiment: MIC, broth microdilution (CLSI); assay type: cell-based, Pseudomonas aeruginosa; conditions: P. aeruginosa AB93066, Gram-negative, 96-well
Procedure: as §1, §2

E. coli AB94012 [1] = assay type: cell-based; conditions: E. coli AB94012, Gram-negative; broth microdilution, 96-well
Procedure: These peptides were used to determine the inhibitory activities against the representative Gram-positive bacteria S. aureus AB94004 and the representative Gram-negative bacteria E. coli AB94012.
as §1, §2

[2] = system: methicillin-resistant coagulase-negative Staphylococcus (MRCNS) P1369; experiment: microbe, parasite or virus in culture; assay type: cell-based; conditions: P1369, methicillin resistant (MRCNS) clinical isolate; repeated at least three times
Procedure: as §2

B. subtilis AB91021 = experiment: MIC, broth microdilution (CLSI); assay type: cell-based, Bacillus subtilis; conditions: B. subtilis AB91021, Gram-positive, 96-well
Procedure: as §1, §2

P. aeruginosa A093115 = experiment: MIC, broth microdilution (CLSI); assay type: cell-based, Pseudomonas aeruginosa; conditions: P. aeruginosa A093115, clinical isolate
Procedure: (§3) Clinical isolated Pseudomonas aeruginosa strains A092994, A093052, A093056, A093085 and A093115 were obtained from Hubei Maternal and Child Health Hospital.
as §2

P. aeruginosa A092994 = experiment: MIC, broth microdilution (CLSI); assay type: cell-based, Pseudomonas aeruginosa; conditions: P. aeruginosa A092994, clinical isolate
Procedure: as §3, §2

P. aeruginosa A093052 = experiment: MIC, broth microdilution (CLSI); assay type: cell-based, Pseudomonas aeruginosa; conditions: P. aeruginosa A093052, clinical isolate
Procedure: as §3, §2

P. aeruginosa A093056 = experiment: MIC, broth microdilution (CLSI); assay type: cell-based, Pseudomonas aeruginosa; conditions: P. aeruginosa A093056, clinical isolate
Procedure: as §3, §2

P. aeruginosa A093085 = experiment: MIC, broth microdilution (CLSI); assay type: cell-based, Pseudomonas aeruginosa; conditions: P. aeruginosa A093085, clinical isolate
Procedure: as §3, §2

S. aureus AB94004 = experiment: Transmission electron microscopy; assay type: cell-based; conditions: 1×MIC, treated for 2 min, semi-thin sections
Procedure: (§4) Figure 6 Transmission electron microscopy of S. aureus and E. coli treated with Kn2-7. (A) Transmission electron microscopy was performed with Kn2-7-treated S. aureus. (A1), (A2) and (A3) were negative controls. (A4), (A5) and (A6) show S. aureus treated with Kn2-7 for 2 min. (A7), (A8) and (A9) show S. aureus treated with BmKn2 for 2 min. (B) Transmission electron microscopy was performed with Kn2-7-treated E. coli. (B1), (B2) and (B3) were the negative controls. (B4), (B5) and (B6) show E. coli treated with Kn2-7 for 2 min. (B7), (B8) and (B9) show E. coli treated with BmKn2 for 2 min.
(§5) Overnight-cultured S. aureus AB94004 and E. coli AB94012 were transferred to LB medium and cultured to the exponential phase. A 200 µl aliquot of the peptide solution was added to 800 µl of the bacterial suspensions at the final concentration of 1×MIC. The samples were cut into semi-thin sections. Microscopy was performed using a HITACHI H-8100 Transmission Electron Microscope.

E. coli AB94012 [3] = experiment: Transmission electron microscopy; assay type: cell-based; conditions: E. coli AB94012, 1×MIC, treated for 2 min, semi-thin sections
Procedure: as §4, §5

Biolayer interferometry = assay type: binding, E. coli; conditions: 10 µg/mL biotinylated peptide on biosensor tips, 500 µg/mL LPS, 10 mM HEPES pH 7.4, 0.14 M NaCl, 30°C
Procedure: Figure 7 Binding assay of Kn2-7 and LTA or LPS. (A) Interaction of 10 µg/ml of Kn2-7 with 500 µg/ml of LPS or 500 µg/mL of LTA. Curve A3 is LPS, curve B3 is LTA and curve C3 is buffer. (B) Interaction of 10 µg/mL of BmKn2 with 500 µg/mL of LPS or 500 µg/mL of LTA. Curve D3 is LPS, curve E3 is LTA and curve F3 is the buffer. (C) MICs of Kn2-7 and BmKn2 treated with LTA or LPS against S. aureus and E. coli.
Biolayer Interferometry (BLI) experiments were performed on OCT RED (FortéBio, Inc.). A total of 500 µg/mL of lipoteichoic acid from S. aureus (LTA, Sigma, L2515), lipopolysaccharides from E. coli (LPS, Sigma, L2880) or buffer (10 mM HEPES, pH 7.4 and 0.14 M NaCl) was dispensed into 96-well microtiter plates at a volume of 200 µl per well. The operating temperature was 30°C. Biosensor tips (FortéBio, Inc., Menlo Park, CA) were pre-wetted with the buffer for 60 seconds at baseline. Then, 10 µg/mL Biotin-Kn2-7 or Biotin-BmKn2 was loaded onto the biosensor tips for 900 seconds. Baseline 2 was subsequently established for 300 seconds. Dissociation of Kn2-7 or BmKn2 occurred for 900 seconds in the buffer. Data were generated automatically by the Octet® User Software (version 3.1) and were subsequently analyzed from the resultant text files using Excel 2000.

HIV-1 = conditions: by direct interaction with viral particle; cited from earlier work
Text: In a previous study by our group, we characterized an antimicrobial peptide, BmKn2, derived from the venom of the scorpion Mesobuthus martensii Karsch. In the present study, a derivative of BmKn2, was designed to increase the antibacterial activity and reduce the hemolytic activity. […] In addit ...

Substance | MIC (S. aureus ATCC 25923) [µg/mL] | MIC (E. coli ATCC 25922) [µg/mL] | MIC (P. aeruginosa AB93066) [µg/mL] | MIC (E. coli AB94012 [1]) [µg/mL] | MIC [2] [µg/mL] | MIC (B. subtilis AB91021) [µg/mL] | MIC (P. aeruginosa A093115) [µg/mL] | MIC (P. aeruginosa A092994) [µg/mL] | MIC (P. aeruginosa A093052) [µg/mL] | MIC (P. aeruginosa A093056) [µg/mL] | MIC (P. aeruginosa A093085) [µg/mL] | Structural changes of cell wall and membrane (TEM) (S. aureus AB94004) | Structural changes of cell wall and membrane (TEM) (E. coli AB94012 [3]) | Binding to LPS (BLI) (Biolayer interferometry) | Inhibition of HIV-1 (HIV-1)
FIGAIARLLSKIF-NH2 [BmKn2] | 6.25 | >100 | 50 | >100 | 12.5 | 12.5 | >100 | >100 | >100 | >100 | >100 |  |  |  | 
FIKRIARLLRKIF [Kn2-7] |  |  |  |  |  |  |  |  |  |  |  | disrupted immediately | formed microspheres that surrounded the bacteria | able to bind to LPS | could inhibit HIV-1

Source: PMC3390344, “Antibacterial Activity and Mechanism of a Scorpion Venom Peptide Derivative In Vitro and In Vivo” (PLoS ONE, 2012)
